{
  "source": "paper PMC9635817",
  "about": "“In vitro inhibition of acetylcholinesterase activity by yellow field pea (Pisum sativum) protein-derived peptides as revealed by kinetics and molecular docking” (Frontiers in Nutrition, 2022)",
  "origin": "cited, not measured here",
  "system": "AChE",
  "data": [
    {"smiles": "COc1cc2c(cc1OC)[C@@H]1[C@H](O)[C@@H](OC)C=C3CCN(C2)[C@H]31", "note": "[galanthine]", "values": [
      {"measurement": "AChE-inhibitory IC50", "value": 1.96, "unit": "µg/mL"}
    ]}
  ]
}
